From patent publication US20220411397A1, “ANALOGUES OF N-ACYL-HOMOSERINE LACTONES AND PHARMACEUTICAL COMPOSITION COMPRISING SAME” (SORBONNE UNIVERSITE, priority 2019, published 2022) come the findings set out here.

In general, EC50 refers to the midpoint of the concentration-response curve.

Molecules are shown by their SMILES. Like-named read-outs stand apart in the source and are kept apart here.

One series deals with E. coli K12 strain. Nature of the series: Bactericidal dosage on the E. coli K12 strain (absorbance at 600 nm). It counts as cell-based. The settings on record: for comparative survival of E. coli K12: all concentrations, maximum 100 μM shown, 18 h. As to the method:
1.1.4. Bactericidal Dosage • The K12 strain of E. coli was grown on agar on day 0 and a colony was transferred to the LYBHI liquid bacterial culture medium on day 1. On day 2, the colony was diluted 1:100 in LYBHI medium and amplified for 18 hours before transfer to an opaque 96-well plate. In each well, LYBHI, controls or increasing doses of tested molecules and bacteria were distributed. The absorbance at 600 nm was read at start-up (t=0) and after an 18-hour incubation. The raw absorbance values were corrected using the absorbance of solutions without bacteria. All experiments were performed twice, each with 4 replicates.
The E. coli K12 strain was cultured at D0 on agar gel, and then a selected colony was transferred to a liquid bacterial culture LYBHI medium at D1. At day 2, this colony was diluted 1:100 in LYBHI medium, and maintained for 18 hours for expansion before distribution in an opaque 96-well plate. In each well were distributed: LYBHI medium, bacterial culture, and test or control compounds. The absorbance of the wells was read at 600 nm at t0 and t18h. The raw absorbance values were corrected against the absorbance of the wells containing only LYBHI medium without bacteria or compounds.

For series [1], the system named is Caco-2/TC7 cells. Nature of the series: Stimulation of Caco-2/TC7 cells by IL-1β, IL-8 secretion (ELISA). It counts as cell-based, human. The text has this: 1.1.1. The Caco-2/TC7 Cell Line • The Caco-2 cell line is derived from a human colon adenocarcinoma and represents a cell culture model of enterocytes lining the epithelium of the small intestinal. […] During the exponential growth phase (from seeding to confluence), the cells remain undifferentiated. At confluence, they can spontaneously (in the absence of differentiation inducers) differentiate and progressively polarize. The differentiation process, which is a growth-related mechanism, is maximal at the end of confluence (stationary phase of the growth curve). • The cells develop a brush border at the apical pole containing microvilli and with characteristic enterocytic enzymes, such as hydrolases. • In accordance with the published literature, the Caco-2/TC7 cells in our experiments were seeded at 10^5 cells/well (equivalent to 10-12×10^3 cells/cm^2) in 6-well plastic culture plates. The cells were maintained in a glucose-rich medium (high glucose in the DMEM GlutaMAX medium 4.5 g/I glucose) supplemented with 20% heat-inactivated foetal calf serum, 1% nonessential amino acids NEAA, and 1% penicillin streptomycin. The cells were grown at 37° C. in a 10% CO2/air atmosphere. The medium was changed every day. Under these conditions, the cells were confluent on day 6. On day 17, the cells were serum-starved, and were used on day 18.
1.2.1. Stimulation of Caco-2/TC7 with Cytokines • The Caco-2/TC7 cells were seeded in 6-well plates at 100,000 cells/well and grown for 18 days. On day 17, the cells were serum-starved, which means that the cell medium was replaced with a foetal calf serum-free medium, and used on day 18. • The stimulation medium was composed of a medium referred to as “starvation medium”, i.e. without foetal calf serum (DMEM GlutaMAX, 1% NEAA, 1% penicillin-streptomycin) with 100 μM of 2-HQ. The cells were incubated for 18 h at 37° C. with 2 ml of stimulation medium containing 0.1% DMSO (negative control) or stimulation medium containing the compounds tested at desired concentrations, with or without proinflammatory cytokines to induce an inflammation. To induce the inflammation, either the IL-1β at 25 ng/ml or the combination of TNF-α and IFN-γ at 50 ng/ml each were used. After 18 h, the supernatants were collected and stored at −80° C. before analysis by ELISA test. The cells were washed with 1 ml of PBS 1×/well, and lysed in 100 μl of PBS 1× containing 1% Triton X-100. The cells were harvested by scraping and stored at −80° C. before the quantification of the protein. The dosing of the LDH was performed immediately before freezing. • All the experiments on the cells were performed in triplicates.
1.2.4. Quantification of the Human Cytokines by ELISA • The levels of the proinflammatory cytokine IL-8 produced by the cells were determined in the cell supernatants and/or cell lysates using the commercially available IL-8 ELISA detection kit (Duoset Human C×CL8/IL-8, ref. DY208) provided by R & D Systems (Minneapolis, Minn., USA) according to the instructions of the manufacturer. • All the cytokine levels were first normalized to the protein content determined in the corresponding cell lysates. Then, to compare the experiments, they could be further normalized using the activated control condition (DMSO+cytokines) as the 100% response.

The next series addresses T1, LasR receptor (Pseudomonas aeruginosa, UniProt P25084).
T1 construct: expressed in transfected cells; host or cells: Escherichia coli carrying plasmid pSB1075
Nature of the series: Activation of the LasR receptor on bacterial reporter strain E. coli pSB1075 (bioluminescence). The class given is cell-based. The text has this:
1.1.3. The Bacterial Reporter Strain E. coli pSB1075 • A bacterial reporter strain of the Quorum Sensing was used to study the ability of the molecules to be recognized by the Pseudomonas aeruginosa AHL receptor (LasR) and induce an activation. […] This bioluminescent strain was modified by addition of a plasmid pSB1075. This plasmid contains genes encoding both tetracycline resistance and the expression of the LasR AHL receptor from the Pseudomonas aeruginosa bacteria, as well as a fusion gene derived from the LasR promoter and the luxCDABE gene from Photorhabdus luminescence. The bacterial strain was grown in the LB medium supplemented with 5 μg/ml tetracycline to exert a selection pressure and ensure that only the desired strain was amplified. The fusion gene included in the plasmid gives the bacteria the ability to emit a bioluminescence when the LasR receptor is activated, and provides the user with a robust test for the molecular screening. […] On day 1, the culture was diluted 1:100 (P1) in 10 ml of LB medium supplemented with 5 μg/ml tetracycline and maintained for 24 hours at 37° C. under stirring at 70 rpm. On day 2, the experiment took place: a bacterial suspension extemporaneously diluted 1:10 in LB medium supplemented with 5 μg/ml tetracycline (P2) was dispensed into a black opaque 96-well plate and incubated for 4 hours with a range of AHL concentrations or controls until the resulting luminescence was read at the end point. All experiments were performed in triplicates.
1.3. […] This bioluminescent strain was developed by the addition of a plasmid pSB1075 containing genes encoding the tetracycline resistance and the expression of the LasR AHL receptor, as well as a fusion gene of the LasR promoter and the luxCDABE gene of Photorhabdus luminescence. • On day 1, a 1/100 dilution of the bacterial strain (P1) was grown for 24 hours at 37° C. under stirring (70 rpm) in a LB medium containing 5 μg/ml tetracycline (pressure selective). On day 2, P1 was diluted 1:10 in the same medium to obtain P2. In a black 96-well plate were placed 200 μL of P2 and 10 μL of the short chain compound (medium, water and DMSO for the negative controls, C4-HSL as positive control, and the test sample at the desired concentration). The plate was incubated for 4 hours at 37° C. under stirring at 70 rpm. […] After that, the incubation was continued according to the conventional protocol, with the test compound at the desired concentrations.

The test system of the next series is human keratinocytes. Description: Inhibition of IL-8 secretion by human keratinocytes stimulated by IL-17 and TNF-α. It counts as cell-based. The settings on record: test of FIG. 4.
Series [2] deals with Caco-2/TC7 cells. Description: Cytotoxicity test, LDH secretion, Caco-2/TC7. The class given is cell-based. The settings on record: 1-100 μM; for measured cytotoxicity (LDH): Caco-2/TC7. As to the method:
(§1) 1.2.6. […] To measure the concentration of LDH in the cell lysate, 800 μL of NADH was added to 10 μL of […] and 190 μL of 0.1 M PBS in a plastic cuvette, and the decrease in the absorbance at 340 nm was monitored for 1 min. […] The percentage of cytotoxicity could be established with the formula: […]
(§2) The cytotoxicity of the tested and control compounds was evaluated using a measurement test of the LDH (Lactate Dehydrogenase) secretion. This test is based on the measurement of the amount of LDH secreted by the cells in their supernatant, compared to the amount of LDH that will remain in the intracellular compartment. This ratio provides an indication of the membrane damage suffered by the cells, and thus of the cytotoxicity of the compound.
(§3) Two methods were used to perform this test: the measurement using an extemporaneously prepared pyruvate/NADH solution, or using the Cytotoxicity Detection Kit^PLUS(LDH) from the manufacturer Roche (Sigma-Aldrich).
(§4) Pyruvate/NADH method: pyruvate/NADH solution prepared with 4.1 mg pyruvic acid (0.62 mM) and 7.7 mg NADH (0.18 mM) in 60 ml of 0.1M PBS (pH 7.4).
(§5) For the measurement of the LDH concentration in the supernatants, 800 μL of NADH was added to 200 μL of supernatant in plastic spectrometry cuvettes, and the decrease in absorbance of the final solution was read at 340 nm for 1 min. For the measurement of the LDH concentration in the cell lysates, 800 μL of NADH was added to 10 μL of cell lysates and 190 μL of 0.1M PBS in plastic spectrometry cuvettes, and the decrease in absorbance of the final solution was read at 340 nm for 1 min. The percentage of LDH secreted was then calculated by the ratio of the decay slopes of the absorbance of the supernatants and of the cell lysates (respectively).
(§6) Cytotoxicity Detection Kit^PLUS (LDH) method: absorbance test performed according to the manufacturer's instructions. The percentage of LDH secreted was then calculated by the formula: […]

In a further series the test system is Raw264.7 murine cells. Nature of the series: Cytotoxicity test, LDH secretion, Raw264.7. The class given is cell-based. The settings on record: as early as 50 μM; basal and stimulated conditions. Here is the method: as §1, §2, §3, §4, §5, §6
A further series relates to human lymphocytes. Nature of the series: Inhibition of IL-2 secretion by human lymphocytes stimulated by CD2, CD3 and CD28. It counts as cell-based. The settings on record: test of FIG. 5.

T1 sequence (P25084 whole entry): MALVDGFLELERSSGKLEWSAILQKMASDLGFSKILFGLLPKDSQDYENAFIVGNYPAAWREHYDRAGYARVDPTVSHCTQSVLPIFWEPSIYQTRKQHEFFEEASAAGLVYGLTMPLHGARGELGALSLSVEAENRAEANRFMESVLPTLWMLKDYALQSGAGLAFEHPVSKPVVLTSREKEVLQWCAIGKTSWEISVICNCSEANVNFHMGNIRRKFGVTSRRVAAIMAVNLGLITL

As to `CCCCCCCCCC(=O)CC(=O)NC1CCSC1=O` (racemic) [I-1, 3-oxo-N-(tetrahydro-2-oxo-3-thienyl)-dodecanamide], the “comparative survival of E. coli K12” value in the series on E. coli K12 strain is reported as “No significant differences”. Moreover, the “activity on IL-1β-stimulated Caco-2/TC7 cells compared with natural 3-oxo-C12 HSL” value in the series with Caco-2/TC7 cells [1] (IL-1β stimulation, no concentration range stated) was “an activity equivalent to that of the natural 3-oxo-C12 HSL”; in the series on Caco-2/TC7 cells [1] (at the 100 μM dose), “more active than the latter”. Further, the half-maximal effective concentration (EC50) on LasR receptor worked out at 0.125 µM.

Consider `CCCCCCCCCC(=O)CC(=O)N[C@H]1CCOC1=O` [3-oxo-C12-HSL, N-(3(S)-oxododecanoyl) homoserine lactone, reference compound], for which, in the series with human keratinocytes, the “activity on IL-8 secretion by keratinocytes” value is “inactive”. The “measured cytotoxicity (LDH)” value in the series on Caco-2/TC7 cells [2] is at most 2.5%. The “secreted LDH, Raw264.7” value in the series on Raw264.7 murine cells was “an increase in secreted LDH”. Also, the “activity on IL-2 secretion by lymphocytes” value in the series on human lymphocytes was “inactive”.

In the case of `CC/C=C\C/C=C\CCC(=O)CC(=O)N[C@H]1CCOC1=O` [3-oxo-C12:2-HSL, reference compound], the “bactericidal effect on E. coli K12” value in the series with E. coli K12 strain (1-100 μM, 18 h of incubation) is given as “No toxic effect”. Moreover, the “activity on IL-8 secretion by keratinocytes” value in the series on human keratinocytes was “inactive”. The “tolerance, Caco-2/TC7” value in the series on Caco-2/TC7 cells [2] (presence and absence of pro-inflammatory cytokines) was “well tolerated”. Besides, the “measured cytotoxicity (LDH)” value in the series with Caco-2/TC7 cells [2] was at most 1.5%. The “secreted LDH, Raw264.7” value in the series with Raw264.7 murine cells is listed as “an increase in secreted LDH”. In addition, in the series on human lymphocytes, the “activity on IL-2 secretion by lymphocytes” value was “inactive”.

As for `CCCC(=O)N[C@H]1CCOC1=O` [C4-HSL, reference compound], the EC50 on LasR receptor (bacterial reporter strain, read-out: EC50 of LasR receptor activation) was over 1000 µM.

As to `CCCCCCCCCC(=O)CC(=O)N[C@H]1CCSC1=O` [I-3, 3-oxo N-[(3S)-tetrahydro-2-oxo-3-thienyl]-dodecanamide], in the series with E. coli K12 strain, the “comparative survival of E. coli K12” value is given as “No significant differences”. Also, the “decrease in the inflammatory secretion” value in the series on Caco-2/TC7 cells [1] (at 5 μM, IL-1β-stimulated Caco-2/TC7) is given as 27%.
